Like-named read-outs stand apart in the source and are kept apart here.
Key:
[1] = system: cytochrome c; test: Detection of cytochrome c release into cytosol; assay type: cell-based, human; conditions: LNCaP, fisetin 10-60 μM, 48 h
Method: Detection of cytochrome c release. After the treatment of LNCaP cells with fisetin (10-60 μM; 48 h), the mitochondrial and cytosolic fractions were prepared according to manufacturer's instructions. After the separation of cytosolic and mitochondrial fraction, 40 μg protein was resolved over 12% polyacrylamide gels and immunoblotted with the cytochrome c and Cox-4 antibodies.

[2] = system: CWR22Ru1 cells; test: MTT cell viability assay, CWR22Ru1 cells; assay type: cell-based; conditions: Homo sapiens, read-out: decrease in cell viability; for cytotoxicity at 10 µM: CWR22Ru1, fisetin 10 μM; for cytotoxicity at 20 µM: CWR22Ru1, fisetin 20 μM; for cytotoxicity at 40 µM: CWR22Ru1, fisetin 40 μM; for cytotoxicity at 60 µM: CWR22Ru1, fisetin 60 μM
Method: obtained from ATCC (Manassas, Va.). LNCaP cells were cultured in Dulbecco's Modified Eagle's medium supplemented with 5% heat-inactivated fetal bovine serum and 1% penicillin/streptomycin (P-S). CWR22Ru1 and PC-3 cells were grown in RPMI 1640 (Invitrogen) supplemented with 10% fetal bovine serum and 1% P-S. Human prostate epithelial cells (PrEC) were obtained from Cambrex Bioscience (Walkersville, Md.) and grown in prostate epithelial basal cell medium (Cambrex Bioscience) according to the manufacturer's instructions. The cells were maintained under standard cell culture conditions at 37° C. and 5% CO2 in a humid environment. Fisetin dissolved in dimethyl sulfoxide (final concentration 0.1% v/v) was used for the treatment of cells. The cells (60-70% confluent) were treated with fisetin (10-60 μM) for 24 and 48 h in complete growth medium.
Cell viability. The effect of fisetin on the viability of cells was determined by 3-[4,5-dimethylthiazol-2-yl]-2,5-diphenyl tetrazoliumbromide assay. LNCaP, CWR22Ru1, PC-3 and PrEC cells were plated at 1×10^4 cells per well in 200 μl of complete culture medium containing 10-60 μM concentrations of fisetin in 96-well microtiter plates for 24 and 48 h. After incubation for specified times at 37° C. in a humidified incubator, 3-[4,5-dimethylthiazol-2-yl]-2,5-diphenyl tetrazoliumbromide (5 mg/ml in PBS) was added to each well and incubated for 2 h, after which the plate was centrifuged at 1,800×g for 5 min at 4° C. The absorbance was recorded on a microplate reader at the wavelength of 540 nm. The effect of fisetin on growth inhibition was assessed as percent cell viability where DMSO-treated cells were taken as 100% viable. DMSO at the concentrations used was without any effect on cell viability.

[3] = target: T1, ligand binding domain (LBD) of androgen receptor (AR) (Homo sapiens, UniProt P10275); test: Competition with labeled AR ligand at the ligand binding domain (FIG. 3)
T1 sequence (P10275 669-900 limits assumed): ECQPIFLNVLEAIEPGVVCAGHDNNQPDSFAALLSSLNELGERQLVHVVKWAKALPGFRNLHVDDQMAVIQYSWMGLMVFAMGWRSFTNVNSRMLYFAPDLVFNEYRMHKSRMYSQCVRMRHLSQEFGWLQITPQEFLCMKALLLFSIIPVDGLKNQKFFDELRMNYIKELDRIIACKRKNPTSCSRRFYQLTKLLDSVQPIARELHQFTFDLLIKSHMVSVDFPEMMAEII

[4] = system: caspase-3, -8 and -9; test: Western blot, active caspase-3, -8 and -9 in LNCaP cells; assay type: cell-based, human; conditions: fisetin 10-60 μM, 48 h
Method: Protein extraction and western blotting. Following the treatment of LNCaP cells with fisetin (10-60 μM; 48 h), the media was aspirated, the cells were washed with cold PBS (pH 7.4), and ice-cold lysis buffer (50 mM Tris-HCl, 150 mM NaCl, 1 mM EGTA, 1 mM EDTA, 20 mM NaF, 100 mM Na3VO4, 0.5% NP-40, 1% Triton X-100, 1 mM PMSF (pH 7.4)) with freshly added protease inhibitor cocktail (Protease Inhibitor Cocktail Set III, Calbiochem, La Jolla, Calif.) over ice for 30 min. The cells were scraped and the lysate was collected in a microfuge tube and passed through a needle to break up the cell aggregates. […]
For western blotting, 30-50 μg protein was resolved over 8-12% polyacrylamide gels and transferred to a nitrocellulose membrane. The blot was blocked in blocking buffer (5% nonfat dry milk/1% Tween 20; in 20 mM TBS, pH 7.6) for 1 hr at room temperature, incubated with appropriate monoclonal or polyclonal primary antibody in blocking buffer for 1.5 h to overnight at 4° C., followed by incubation with anti-mouse or anti-rabbit secondary antibody horseradish peroxidase conjugate obtained from Amersham Life Science Inc. and detected by chemiluminescence and autoradiography using XAR-5 film obtained from Eastman Kodak Co. (Rochester, N.Y., USA). […]

## O=c1c(O)c(-c2ccc(O)c(O)c2)oc2cc(O)ccc12 [fisetin, 3,3′,4′,7-tetrahydroxyflavone]
[1]
  levels of cytochrome c in the cytosol: elevated dose-dependently
[2]; 24 h
  cytotoxicity at 10 µM: 12%
  cytotoxicity at 20 µM: 26%
  cytotoxicity at 40 µM: 38%
  cytotoxicity at 60 µM: 52%
[2]; 48 h
  cytotoxicity at 10 µM: 18%
  cytotoxicity at 20 µM: 34%
  cytotoxicity at 40 µM: 44%
  cytotoxicity at 60 µM: 55%
[3]
  competition with labeled AR ligand, interaction with LBD: competes with a labeled AR ligand
[4]
  activation of caspase-3, -8 and -9: dose-dependent increase
